The values that follow come from patent US6541238B1, “Recombinant cellulose synthase” (Board of Regents, The University of Texas Systems, priority 1990, dated 2003).

The test system of data set [1] is DNA from A. xylinum ATCC 53582 and ATCC 23769. Put plainly: DNA-DNA hybridization of 17-mer oligonucleotide probes with HindIII-digested total DNA. The class given is binding, Acetobacter xylinum. The settings on record: stringent hybridization conditions; HindIII digest. The method, then: Hybridization of the oligonucleotide probes with A. xylinum DNA was carried out using the eight oligonucleotides that were thus synthesized. […] In order to accomplish these studies, total DNA from A. xylinum ATCC 53582, A. xylinum ATCC 23769, and E. coil HB101 (a common strain of E. coli used in recombinant DNA experiments) was digested with HindIII and the fragments were separated on an agarose gel. After separation, the fragments were transferred by capillary action to a nylon membrane (GeneScreen; NEN Research Products) according to the procedure of Reed and Mann (1985). The DNA thus transferred was next hybridized with the ^32P-labeled oligonucleotide of the invention using standard procedures. Hybridization was accomplished in a solution with 5×SSC [1×SSC: 0.15M NaCl, 0.015M sodium citrate] at 45° C. for 16-24 hours. The filters were then washed with a solution containing reduced salt concentration. In all cases, the hybridization temperature was 5-7° C. below the dissociation temperature as described by Suggs, et al. (1981) applying the formula Td=2(A+T)+4(G+C).

Data set [2] deals with T1, 83 kd polypeptide of cellulose synthase (Komagataeibacter xylinus, UniProt P0CW87).
T1 construct: endogenous in cells; host or cells: Acetobacter xylinum ATCC 53582; membranes solubilized with detergent, enzyme purified by cellulose entrapment
T1 sequence (P0CW87 1-723): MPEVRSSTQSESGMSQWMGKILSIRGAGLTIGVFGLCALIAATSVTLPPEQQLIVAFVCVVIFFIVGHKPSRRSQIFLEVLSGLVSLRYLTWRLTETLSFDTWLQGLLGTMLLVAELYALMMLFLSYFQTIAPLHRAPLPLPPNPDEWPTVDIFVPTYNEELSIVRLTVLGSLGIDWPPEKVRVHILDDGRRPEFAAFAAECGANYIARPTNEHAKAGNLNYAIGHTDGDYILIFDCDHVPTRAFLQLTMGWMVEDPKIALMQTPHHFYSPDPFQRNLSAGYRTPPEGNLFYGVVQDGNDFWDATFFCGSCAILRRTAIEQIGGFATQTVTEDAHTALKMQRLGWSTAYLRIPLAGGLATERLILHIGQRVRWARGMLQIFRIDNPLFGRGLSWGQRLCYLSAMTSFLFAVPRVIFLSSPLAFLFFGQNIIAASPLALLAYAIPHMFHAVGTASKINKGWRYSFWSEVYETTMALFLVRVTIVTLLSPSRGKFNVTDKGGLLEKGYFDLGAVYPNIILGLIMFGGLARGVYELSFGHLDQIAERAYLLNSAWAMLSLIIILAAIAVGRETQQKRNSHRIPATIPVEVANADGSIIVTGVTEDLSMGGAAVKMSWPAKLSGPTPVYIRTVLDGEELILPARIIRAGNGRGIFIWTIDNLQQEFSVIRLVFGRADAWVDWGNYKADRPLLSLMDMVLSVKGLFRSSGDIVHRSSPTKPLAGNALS
T1 sequence (P0CW87 742-1550 partner limits assumed): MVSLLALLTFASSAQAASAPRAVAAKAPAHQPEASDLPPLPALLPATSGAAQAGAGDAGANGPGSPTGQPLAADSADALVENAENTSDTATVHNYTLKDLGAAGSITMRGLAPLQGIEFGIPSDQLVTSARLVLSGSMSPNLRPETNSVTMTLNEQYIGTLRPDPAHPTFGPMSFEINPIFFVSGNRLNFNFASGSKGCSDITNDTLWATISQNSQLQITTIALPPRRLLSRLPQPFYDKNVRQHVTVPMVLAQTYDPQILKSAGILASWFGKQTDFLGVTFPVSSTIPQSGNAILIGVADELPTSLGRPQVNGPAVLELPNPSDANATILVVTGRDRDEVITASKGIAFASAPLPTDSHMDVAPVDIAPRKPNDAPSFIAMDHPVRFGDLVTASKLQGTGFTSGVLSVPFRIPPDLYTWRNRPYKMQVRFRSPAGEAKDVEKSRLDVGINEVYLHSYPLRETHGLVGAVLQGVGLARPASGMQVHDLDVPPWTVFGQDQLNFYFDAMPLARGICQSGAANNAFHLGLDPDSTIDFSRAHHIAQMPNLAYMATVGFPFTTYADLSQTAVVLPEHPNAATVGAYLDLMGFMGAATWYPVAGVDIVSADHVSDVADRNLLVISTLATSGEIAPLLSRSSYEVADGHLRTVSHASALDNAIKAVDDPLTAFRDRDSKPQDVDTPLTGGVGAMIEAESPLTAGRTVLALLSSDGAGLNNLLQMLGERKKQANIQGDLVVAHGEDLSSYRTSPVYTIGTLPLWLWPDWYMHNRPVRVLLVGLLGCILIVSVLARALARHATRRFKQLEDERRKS
Put plainly: Photoaffinity labeling of purified cellulose synthase with [β-32P]5N3UDP-glc. The class given is binding, Acetobacter xylinum. The method, then: In addition to 20 μl of activator for cellulose synthase, each reaction mixture contained 50 mM Tris-HCl, 10 mM MgCl2, 1 mM CaCl2, 1 mM EDTA, the indicated protein quantity of enzyme sample, and 20 μM of [β-^32P]5N3UDP-glc (specific activity, 24 mCi/μmol) in a final reaction volume of 50 μl at pH 8.0-8.5. For competition experiments, the competitor, namely UDP-glc, was added at final concentrations of 0, 50, 100, and 300 μM, respectively. For saturation studies, [B-^32P]5N3UDP-glc was added at final concentrations of 20, 50, 100, 300 and 500 μM, respectively. […] Reactions were terminated by the addition of 0.3 ml of 7% perchloric acid. […] The Coomassie blue stained gel was dried and autoradiographed. Autoradiography was performed at −80° C. with Kodak X-Omat AR film and a Dupont Cronex intensifying screen. The molecular mass standards (Bio-Rad) were phosphorylase b (97kd), bovine serum albumin (66 kd), ovalbumin (45 kd), and carbonic anhydrase (31 kd).
The quantitation of the autoradiographs was measured by grey value discrimination of a digitized image (recorded on a Kontron/Zeiss IBAS Image Processing System).

The target of data set [3] is cellulose synthase of Acetobacter xylinum, Triton X-100-solubilized enzyme preparation (TS) (Acetobacter xylinum ATCC 53582). Put plainly: Con A-Sepharose 4B column chromatography of TS; bound enzyme eluted with 0.3 M methyl alpha-D-mannopyranoside.
For another data set, the target named is T2, cellulose synthase (Komagataeibacter xylinus, UniProt P0CW87).
T2 construct: endogenous in cells; host or cells: Acetobacter xylinum; washed or trypsinized membranes, Triton X-100, n-octyl glucoside or digitonin extracts, entrapment pellets EP1 and EP2
T2 sequence (P0CW87 1-723): T1 sequence (P0CW87 1-723)
T2 sequence (P0CW87 742-1550 partner limits assumed): T1 sequence (P0CW87 742-1550 partner limits assumed)
Nature of the data set: Cellulose synthase enzyme assay (UDP-[14C]glc into alkali-insoluble material). The data set is classed as biochemical, Acetobacter xylinum. As for the experimental part: Enzyme Assay—Assays contained a final volume of […]: 20 μl of 0.5 M Tris-HCl (pH 9.6) containing 50 mM MgCl2 and 5 mM EDTA, 20 μl of 0.1 M MgCl2, 20 μl of 10 MM CaCl2, 25 μl of TME buffer, 25 μl of H2O, 20 μl of crude Gx, and 50 μl of enzyme sample. […] The reaction was stopped with 2 ml of 0.5 M NaOH, and the radioactivity in alkali-insoluble materials was counted after filtration through glass-fiber filters, as described in detail (Bureau and Brown 1987).
Protein Determination—Protein concentrations were determined according to the method of Bradford (1976), using the protein assay kit of Bio-Rad Laboratories. A modification of the Lowry procedure (Markwell 1978) was used only with membrane preparations. In both cases, bovine serum albumin was used as a standard.

Turning to 5′-ATGTCICAGTGGATGGG-3′ [83-1G], the “hybridization (homology) with A. xylinum DNA” value in data set [1] was “showed homology with a single HindIII fragment”.
`[N-]=[N+]=Nc1cn([C@@H]2O[C@H](COP(=O)(O)OP(=O)(O)O[C@H]3O[C@H](CO)[C@@H](O)[C@H](O)[C@H]3O)[C@@H](O)[C@H]2O)c(=O)[nH]c1=O` [[β-^32P]5N3UDP-glc]: the “probe concentration at which saturation of photoinsertion was being obtained” value in data set [2] (83 kd protein band) is “above 100 μM”. Moreover, the Kd in data set [2] (probe 20-500 μM, 83 kd polypeptide, read-out: kd value, saturation of cellulose synthase photolabeling) worked out at 68 µM.
With `Nc1nc2c(ncn2[C@@H]2O[C@@H]3COP(=O)(O)O[C@H]4[C@@H](O)[C@H](n5cnc6c(=O)[nH]c(N)nc65)O[C@@H]4COP(=O)(O)O[C@H]3[C@H]2O)c(=O)[nH]1` [c-di-GMP, bis-(3′,5′)-cyclic diguanylic acid], the “increase of photoincorporation into the 83 kd band in the presence of activator” value in data set [2] (purified preparation, FIG. 8 lane 6 vs lane 5) is listed as 45%.
In data set [3], “Concanavalin A (Con A) Sepharose 4B (from UniProt P02866 30-281)” returned a total enzyme activity recovered on elution from the Con A-Sepharose column of over 90%.

B1: trypsin: trypsin (EC 3.4.21.4), Sigma (protein, UniProt P00760 24-246, looked up)
Serine protease 1: IVGGYTCGANTVPYQVSLNSGYHFCGGSLINSQWVVSAAHCYKSGIQVRLGEDNINVVEGNEQFISASKSIVHPSYNSNTLNNDIMLIKLKSAASLNSRVASISLPTSCASAGTQCLISGWGNTKSSGTSYPDVLKCLKAPILSDSSCKSAYPGQITSNMFCAGYLEGGKDSCQGDSGGPVVCSGKLQGIVSWGSGCAQKNKPGVYTKVCNYVSWIKQTIASN
On to B1, for which, in the data set with cellulose synthase (30 minutes at 25° C.), the “effect of trypsin on enzyme activity of washed membranes or TS” value is reported as “did not effect enzyme activity”. Further, the “effect of trypsin on enzyme activity of the EP1 fraction from DS” value with cellulose synthase (1 hour at 25° C.) was “enzyme activity was still maintained”.
